US11613558B2, “Peptides and pharmaceutical compositions for treating eye diseases” (Yuyu Pharma, Inc., priority 2018, dated 2023)
Numbered stars: 1 amine (or outer) side, 2 acyl side, 3 side chain; on linkers, the order of the positions; unused ones are H or OH. Square brackets hold non-standard residues; d marks the D form. Peptide text beside a SMILES is read from it. ξ: configuration not given here. Pro(trans-4-F) = O=C(O)[C@@H]1C[C@@H](F)CN1; X1 = O=C([C@H](CCCCO)N[*:1])[*:2]; Hyp = O=C(O)[C@@H]1C[C@@H](O)CN1; Thr(3ξ) = CC(O)[C@H](N)C(=O)O; pGlu = O=C1CC[C@@H](C(=O)O)N1; hSer = N[C@@H](CCO)C(=O)O

Legend:
[1] = system: rats with dry eye syndrome (extraorbital lacrimal gland excision, ELGE); test: Amount of tear secretion (Schirmer test, cobalt chloride paper) in ELGE rats with dry eye syndrome; assay type: in vivo, rat; conditions: for Tear Volumes, Day 7 / Tear Volumes, Day 14: ELGE rats, 3 mg/ml, 5 μl/eye twice daily; for Tear Volumes, Day 7: day 7 of administration; for Tear Volumes, Day 14: day 14 of administration; for Change in amount of tear secretion as compared with the ELGE control group: 3% solution as printed, after administration for 14 days
Excerpt: (§1) In order to evaluate the eye protection effect on dry eye syndrome by YDE-001 to YDE-028 prepared in Example 1, a total of 320 Sprague-Dawley-type male rats (OrientBio, Seungnam, Korea) were adapted for 7 days. Thereafter, dry eye syndrome was induced in 264 test rats through extraorbital lacrimal gland excision (hereinafter, ELGE). 8 test rats without the eye abnormality were subjected to a sham operation as a control group.
(§2) The rat was systemically anesthetized by inhaling a mixed gas of 2% to 3% of isoflurane (Hana Pharm. Co., Hwasung, Korea), 70% of N2O, and 28.6% of O2 using a rodent anesthesia machine (Surgivet, Waukesha, Wis., USA) and a ventilator (Model 687, Harvard Apparatus, Cambridge, UK). Thereafter, the extraorbital lacrimal gland located in the subdermal area above the masseter muscle and […] was excised through a transverse incision in a size of 10 mm on the anterior part of the left ear tragus. The skin was sutured by a general method. […] After 6 days from the ELGE operation, it was checked through the Schirmer test by measuring the amount of tear secretion whether dry eye syndrome had been induced. Meanwhile, each rat of the control group with the sham operation was checked for the presence and location of the extraorbital lacrimal gland through a skin incision, and the skin was then sutured without the excision thereof (FIG. 4).
(§3) In addition, in order to evaluate the eye protection effect on dry eye syndrome by YDE-029 to YDE-043 prepared in Example 1, a total of 200 Sprague-Dawley-type male rats (OrientBio, Seungnam, Korea) were adapted for 7 days. Dry eye syndrome was induced in 165 test rats through the ELGE. 8 test rats without the eye abnormality were subjected to the sham operation as a control group. The ELGE was carried out as described above.
(§4) For YDE-001 to YDE-028, YY-102 and the 28 YDE-series were each dissolved in physiological saline at a concentration of 3 mg/ml and administered at a dose of 5 μl/eye at 9:30 am and 3:30 pm daily for 14 days after 7 days from the ELGE operation for a total of 28 times. The DS solution was dissolved in physiological saline at a concentration of 30 mg/ml and administered at a dose of […] twice a day for 14 days after 7 days from the ELGE operation for a total of 28 times. For the sham control and the ELGE control groups, the same stimulation as the administration was applied. In order to prevent excessive eye dryness, the same volume of physiological saline was applied in the same manner in place of the test substances.
as §4, with “Further, for YDE-029 to YDE-043,” for “For YDE-001 to YDE-028,”, “YDE-029 to YDE-043, YY-102 and” for “YDE-001 to YDE-028, YY-102 and”, “and the 15 YDE-series were” for “and the 28 YDE-series were”, “the test substances (FIG. 7).” for “the test substances.”
After 6 days from the ELGE surgery, the changes in the amount of tear secretion were measured at day 7 and day 14 after the administration of YDE-001 to YDE-043. The amount of tear secretion was measured by the […] travel distance of tears absorbed by cobalt chloride paper in a size of 1×15 mm (Toyo Roshi Kaisha, Japan).
The cobalt chloride paper was placed in the lateral canthus of a rat for 60 seconds to absorb tears (FIG. 9). The length of the area absorbed from the corner of the cobalt chloride paper was measured with an electronic digital caliper (Mytutoyo, Tokyo, Japan) (FIG. 8).

[2] = system: cornea of rats with dry eye syndrome (ELGE); test: Corneal permeability of fluorescent dye (corneal damage) in ELGE rats with dry eye syndrome; assay type: in vivo, rat; conditions: 5 μl/eye twice daily, day 14
Excerpt: as §1, §2, §3, §4
as §4, with “Further, for YDE-029 to YDE-043,” for “For YDE-001 to YDE-028,”, “YDE-029 to YDE-043, YY-102 and” for “YDE-001 to YDE-028, YY-102 and”, “and the 15 YDE-series were” for “and the 28 YDE-series were”, “the test substances (FIG. 7).” for “the test substances.”
After YDE-001 to YDE-028 were each administered to the eyes […], the changes in the corneal permeability were checked.
In order to measure the corneal permeability, Zolethyl 50™ (Virbac Lab., Carros, France), an animal anesthetic, was intraperitoneally injected at a dose of 25 mg/kg. Thereafter, saline containing a 1% (v/v) fluorescent solution (fluorescein sodium salt, Tokyo Kasei Kogyo Co., Tokyo, Japan) was applied to the eyes at a dose of 5 μl/eye. The eyes thus treated were closed and fixed with a tape. After 1 hour, the remaining fluorescent solution was removed using a cotton swab (FIG. 12). […]

[3] = Stability in aqueous solution under long-term storage conditions (related substances); assay type: physicochemical; conditions: 25° C., 75% RH
Protocol: In order to confirm the stability of each test substance in an aqueous solution, […] of each sample was dissolved in 1 ml of water to a concentration of 1 mg/ml, which was then charged to a glass vial, plugged with a rubber cap, sealed with an aluminum cap, and stored under long-term storage conditions (25° C., 75% RH). The stability of the test substance was evaluated by measuring the amount of related substances at the time of one week, two weeks, four weeks, eight weeks, and twelve weeks under the long-term storage conditions.

[4] = Table 4, study of YDE-001 to YDE-028
[5] = Table 6, study of YDE-001 to YDE-028, 3 mg/ml
[6] = Table 5, study of YDE-029 to YDE-043
[7] = Table 7, study of YDE-029 to YDE-043, 3 mg/ml

| SMILES | Tear Volumes, Day 7 [1, 4] [mm^3] | Tear Volumes, Day 14 [1, 4] [mm^3] | Change in amount of tear secretion as compared with the ELGE control group ([1]; study of YDE-001 to YDE-028) | Permeability of fluorescent dye [2, 5] [%] | Amount of related substances (after 12 weeks) [3] [%] | Tear Volumes, Day 7 [1, 6] [mm^3] | Tear Volumes, Day 14 [1, 6] [mm^3] | Change in amount of tear secretion as compared with the ELGE control group ([1]; study of YDE-029 to YDE-043) | Permeability of fluorescent dye [2, 7] [%] |
| --- | --- | --- | --- | --- | --- | --- | --- | --- | --- |
| CC(C)C[C@H](NC(=O)[C@H](Cc1c[nH]c2ccccc12)NC(=O)[C@H](CC(=O)O)NC(=O)[C@H](CCC(N)=O)NC(=O)CNC(=O)[C@@H]1C[C@@H](O)CN1)C(=O)N[C@@H](C)C(=O)NCC(=O)N1CCC[C@H]1C(=O)N[C@@H](CCCCN)C(=O)O [YDE-021] (H-[Hyp]GQDWLAGPK-OH) | 4.08 ± 1.33 | 4.90 ± 1.13 | did not show any significant changes | 37.00 ± 10.49 | 21.33 |  |  |  |  |
| CC(C)C[C@H](NC(=O)CNC(=O)[C@H](Cc1ccccc1)NC(=O)[C@H](CCC(N)=O)NC(=O)CNC(=O)[C@@H]1C[C@@H](O)CN1)C(=O)N[C@@H](C)C(=O)NCC(=O)N1CCC[C@H]1C(=O)N[C@@H](CCCCN)C(=O)O [YDE-012] (H-[Hyp]GQFGLAGPK-OH) | 3.68 ± 0.99 | 5.67 ± 1.86 |  | 31.01 ± 11.38 | 3.57 |  |  |  |  |
| CC(C)C[C@H](NC(=O)CNC(=O)[C@H](CCO)NC(=O)[C@H](CCC(N)=O)NC(=O)CNC(=O)[C@@H]1C[C@@H](O)CN1)C(=O)N[C@@H](C)C(=O)NCC(=O)N1CCC[C@H]1C(=O)N[C@@H](CCCCN)C(=O)O [YDE-026] (H-[Hyp]GQ[hSer]GLAGPK-OH) | 4.32 ± 1.47 | 6.01 ± 1.83 |  | 22.63 ± 11.23 | 10.15 |  |  |  |  |
| CC(C)C[C@H](NC(=O)CNC(=O)[C@H](CCC(=O)O)NC(=O)[C@H](CCC(N)=O)NC(=O)CNC(=O)[C@@H]1C[C@@H](O)CN1)C(=O)N[C@@H](C)C(=O)NCC(=O)N1CCC[C@H]1C(=O)N[C@@H](CCCCN)C(=O)O [YDE-001] (H-[Hyp]GQEGLAGPK-OH) | 4.88 ± 1.62 | 5.92 ± 2.19 |  | 25.49 ± 11.62 | 3.92 |  |  |  |  |
| CC(C)C[C@H](NC(=O)CNC(=O)[C@H](CC(N)=O)NC(=O)[C@H](CCC(N)=O)NC(=O)CNC(=O)[C@@H]1C[C@@H](O)CN1)C(=O)N[C@@H](C)C(=O)NCC(=O)N1CCC[C@H]1C(=O)N[C@@H](CCCCN)C(=O)O [YDE-002] (H-[Hyp]GQNGLAGPK-OH) | 3.84 ± 1.16 | 5.01 ± 1.67 |  | 38.26 ± 11.25 | 4.93 |  |  |  |  |
| CC(C)C[C@H](NC(=O)CNC(=O)[C@H](CCC(N)=O)NC(=O)[C@H](CCC(N)=O)NC(=O)CNC(=O)[C@@H]1C[C@@H](O)CN1)C(=O)N[C@@H](C)C(=O)NCC(=O)N1CCC[C@H]1C(=O)N[C@@H](CCCCN)C(=O)O [YDE-003] (H-[Hyp]GQQGLAGPK-OH) | 4.13 ± 1.76 | 4.88 ± 1.57 |  | 40.45 ± 6.46 | 6.86 |  |  |  |  |
| CC(C)C[C@H](NC(=O)CNC(=O)[C@H](CCCCN)NC(=O)[C@H](CCC(N)=O)NC(=O)CNC(=O)[C@@H]1C[C@@H](O)CN1)C(=O)N[C@@H](C)C(=O)NCC(=O)N1CCC[C@H]1C(=O)N[C@@H](CCCCN)C(=O)O [YDE-005] (H-[Hyp]GQKGLAGPK-OH) | 3.85 ± 0.93 | 5.08 ± 1.91 |  | 37.98 ± 11.53 | 2.97 |  |  |  |  |
| CC(C)C[C@H](NC(=O)CNC(=O)[C@H](CC(C)C)NC(=O)[C@H](CCC(N)=O)NC(=O)CNC(=O)[C@@H]1CCC(=O)N1)C(=O)N[C@@H](C)C(=O)NCC(=O)N1CCC[C@H]1C(=O)N[C@@H](CCCCN)C(=O)O [YDE-036] ([pGlu]GQLGLAGPK-OH) |  |  |  |  | 8.77 | 4.95 ± 1.05 | 5.13 ± 1.03 | did not show any significant changes | 57.87 ± 22.91 |
| CC(C)C[C@H](NC(=O)CNC(=O)[C@H](CC(C)C)NC(=O)[C@H](CCC(N)=O)NC(=O)CNC(=O)[C@@H]1C[C@@H](F)CN1)C(=O)N[C@@H](C)C(=O)NCC(=O)N1CCC[C@H]1C(=O)N[C@@H](CCCCN)C(=O)O [YDE-039] (H-[Pro(trans-4-F)]GQLGLAGPK-OH) |  |  |  |  | 2.19 | 6.04 ± 1.01 | 6.44 ± 1.96 |  | 29.94 ± 11.40 |
| CC(C)C[C@H](NC(=O)CNC(=O)[C@H](CC(C)C)NC(=O)[C@H](CCC(N)=O)NC(=O)CNC(=O)[C@@H]1C[C@@H](O)CN1)C(=O)N[C@@H](C)C(=O)NCC(=O)N1CCC[C@H]1C(=O)N[C@@H](CCCCO)C(=O)O [YDE-033] (H-[Hyp]GQLGLAGP[X1]-OH) |  |  |  |  | 5.6 | 4.99 ± 1.20 | 4.54 ± 1.16 | did not show any significant changes | 60.55 ± 21.22 |
| CC(C)C[C@H](NC(=O)CNC(=O)[C@@H](NC(=O)[C@H](CCC(N)=O)NC(=O)CNC(=O)[C@@H]1C[C@@H](O)CN1)C(C)O)C(=O)N[C@@H](C)C(=O)NCC(=O)N1CCC[C@H]1C(=O)N[C@@H](CCCCN)C(=O)O (some centres unmarked) [YDE-007] (H-[Hyp]GQ[Thr(3ξ)]GLAGPK-OH) | 3.91 ± 1.28 | 5.45 ± 1.26 |  | 32.79 ± 10.77 | 3.76 |  |  |  |  |
